Assays:
[1] = test system: Primary CD-1 mouse hepatocytes; assay: Hepatocyte toxicity assay (CellTiter Glo); type: cell-based; conditions: 10 μM daily for 4 days, FIG. 4
Protocol: Fresh Primary CD-1 mouse hepatocytes were obtained from XenoTech in 96-well plates the day after perfusion. After 24 hrs of recovery at 37° C. using OptiCulture Hepatocyte Media, medium was replaced containing either DMSO alone (no drug treatment) or 10 μM of compound I-1 daily for 4 days. Cell viability was measured using CellTiter Glo 2.0 Kit from PROMEGA, following manufacturer instructions. Luminescence was measured using a SynergyHTX plate reader with a 1 sec integration.
Normal, healthy mouse hepatocytes were treated with DMSO alone (no drug treatment) or 10 µM of compound I-1 for 4 days. Cell health was measured using CELLTITER GLO reagent, which provided a luminescence readout as a measurement of total ATP concentration.

[2] = test system: AGS cells; assay: Kinetic cell viability with AGS cells (RealTime Glo MT); type: cell-based, human
Protocol: Approximately 50,000 AGS cells were seeded per well of a 96-well plate in media containing NanoLuc Luciferase and MT Cell Viability Substrate provided on the RealTime Glo MT Cell Viability Assay Kit from PROMEGA. Four hours after plating, cells were treated with DMSO alone (no drug treatment) or decreasing concentrations of a compound of the disclosure to achieve final concentrations of 20, 10, 5, and 2.5 μM. Luminescence Units (RLU) were measured every 16-20 hours using a SynergyHTX plate reader with a 30 msec integration (see FIG. 1).
Approximately 50,000 AGS cells were seeded per well of a 96-well plate in media containing NanoLuc Luciferase and MT Cell Viability Substrate provided on the RealTime Glo MT Cell Viability Assay Kit from PROMEGA. Four hours after plating, cells were treated with DMSO alone (no drug treatment) or decreasing concentrations of compound I-1 to achieve final concentrations of 20, 10, 5, and 2.5 μM. Luminescence Units (RLU) were measured every 16-20 hrs using a SynergyHTX plate reader with a 30 msec integration.
AGS gastric cancer cells were treated with either DMSO alone (no drug treatment) or various concentrations of compound I-1 (including 2.5 µM, 5 µM, 10 µM, and 20 µM) for 4 days. Cell health and replication were measured using REALTIME-GLO MT Cell Viability Assay, which provided a luminescence readout as a measurement of cell number and health.

CCC(=O)N1CCc2cc(-c3ccc(C(=O)NCc4cccnc4)cc3)ccc21 [Compound I-1]
toxicity to healthy hepatocytes [1]: no toxicity | growth of gastric cancer cells ([2]; AGS cells, 2.5-20 μM, 4 days, FIG. 5): inhibited growth | populations of embryonic-like gastric cell populations in gastric cancer ([2]; AGS cells, 20, 10, 5 and 2.5 μM, FIG. 1): depleted

From patent US12522587B2, “Cancer treatments targeting cancer stem cells” (Remedy Plan, Inc., priority 2018, dated 2026)
